The values below come from patent US4621076A, “Pharmaceutical composition useful for inhibiting platelet aggregation” (Meito Sangyo Kabushiki Kaisha, priority 1982, dated 1986).

Data set [1] concerns platelet aggregation induced by thrombin. The data set can be described thus: Inhibition of thrombin-induced platelet aggregation in vitro, Table 1 (method of Born, human PRP, aggregometer). It counts as cell-based, human (healthy person). How it is done:
(§1) (1) Inhibitory effect of GMP on platelet aggregation induced by various platelet aggregation inducing substances:
(§2) The inhibitory effect was measured by the method of Born (J. Physiol., vol. 168, p. 178, 1963).
(§3) Blood was drawn from the cubital vein of a healthy person with a care taken to avoid congestion. One part by volume of a 3.8% sodium citrate solution was added to 9 parts by volume of the blood, and the mixture was centrifuged at 1,000 rpm for 10 minutes at room temperature to obtain platelet-rich plasma (PRP). 0.1 ml of a solution of 5'-GMP sodium salt in each of the concentrations shown in Table 1 below was added to 0.7 ml of PRP, and then each of the various platelet aggregation inducing agents shown in Table 1 was added. Changes in absorbance were measured by an aggregometer (made by Evans Company), and the rate of platelet aggregation inhibition was calculated from the following equation.

Data set [2] concerns platelet aggregation (thrombin-induced). The data set can be described thus: Inhibitory effect on platelet aggregation in humans in vivo (thrombin added to PRP). Set-up: species or system human (healthy persons). Particulars: for Rate of platelet aggregation inhibition (%): five healthy persons, oral one gram. How it is done:
(4) Inhibitory effect on platelet aggregation in humans in vivo:
One gram of 5'-GMP (sodium salt) was administered orally to each of five healthy persons, and blood was drawn from them after a predetermined period of time. One part by volume of a 3.8% aqueous solution of sodium citrate was added to 9 parts by volume of the blood, and the mixture was centrifuged at room temperature for 10 minutes at 1,000 rpm to obtain platelet-rich plasma (PRP). 0.1 ml of a thrombin solution (0.75 u/ml) was added to 0.7 ml of PRP, and changes in absorbance were measured by an aggregometer (made by Evans Company).

Data set [3] shares this test system. Description: Duration of the platelet aggregation inhibiting effect in vivo in rabbits (thrombin added to PRP). The following applies: rabbit. How it is done: (3) Inhibitory effect on platelet aggregation in vivo:
(1) Duration of the aggregation inhibiting effect.
(§4) 5'-GMP sodium salt was administered to rabbits intravenously in a dose of 50 mg/kg or orally in a dose of 1 g/kg. After a predetermined period of time (30 seconds to 4 minutes in the case of intravenous injection, and 1 to 5 hours in oral administration), blood was drawn from the animals. One part by volume of a 3.8% solution of sodium citrate was added to 9 parts by volume of the blood, and the mixture was centrifuged at 1,000 rpm at room temperature for 10 minutes to obtain platelet-rich plasma (PRP). 0.1 ml of a thrombin solution (0.75 u/ml) was added to 0.7 ml of PRP, and then changes in absorbance were measured by an aggregometer (made by Evans Company).

Data set [4] relates to platelet aggregation induced by various platelet aggregation inducing substances. Description: Inhibition of platelet aggregation induced by various platelet aggregation inducing substances. The data set is classed as cell-based, human (healthy person). The following applies: Table 1. How it is done: as §1, §2, §3
Data set [5] deals with platelet aggregation. Particulars: cited from earlier work.
Data set [6] relates to thrombin-induced platelet aggregation. Description: Thrombin-induced platelet aggregation (inventors' test of 5'-GDP). The data set is classed as cell-based. Particulars: tests conducted by the present inventors.
Data set [7] has as its system 5'-ADP-induced platelet aggregation. Particulars: at high concentrations; cited from earlier work.
Data set [8] deals with platelet aggregation induced by norepinephrine. The data set can be described thus: Inhibition of norepinephrine-induced platelet aggregation in vitro (method of Born, human PRP, aggregometer). It counts as cell-based, human (healthy person). Particulars: norepinephrine 55.5 γ/ml, sample 1.00 mg/ml, read-out: Rate of inhibition (%). How it is done:
as §1, §2, §3

Data set [9] deals with thrombin-induced platelet aggregation. The data set can be described thus: Inhibitory effect on thrombin-induced platelet aggregation in vitro, Table 2. The data set is classed as cell-based, human (healthy person). As for the experimental part:
Blood was drawn from the cubital vein of a healthy person with a care taken to avoid congestion. […] 0.1 ml of a solution of 5'-GMP sodium salt in each of the concentrations shown in Table 1 below was added to 0.7 ml of PRP, and then each of the various platelet aggregation inducing agents shown in Table 1 was added. Changes in absorbance were measured by an aggregometer (made by Evans Company), and the rate of platelet aggregation inhibition was calculated from the following equation.
The same experiment as in (1) above was carried out except that […] of thrombin was used as a platelet aggregation inducing agent.

Data set [10] deals with platelet aggregation. The data set can be described thus: Relation between dose of GMP and aggregation inhibiting effect in rabbits in vivo. Particulars: rabbit, one hour after administration. How it is done:
as §4
(2) Relation between the dose of GMP and the aggregation inhibiting effect.
Using rabbits, the dose response of the platelet aggregation inhibiting activity of 5'-GMP (sodium salt) in vivo was examined. 5'-GMP (sodium salt) was orally administered to the rabbits, and blood was drawn from the animals one hour after the administration. PRP was prepared in the same way as in section (1) above. The degree of platelet aggregation inhibition was measured by an aggregometer.

Data set [11] deals with platelet aggregation induced by 5'-ADP. Description: Inhibition of 5'-ADP-induced platelet aggregation in vitro (method of Born, human PRP, aggregometer). The data set is classed as cell-based, human (healthy person). The following applies: 5'-ADP 55.5 γ/ml, read-out: Rate of inhibition (%). As for the experimental part: as §1, §2, §3
The subject of data set [12] is platelet aggregation induced by arachidonic acid. Description: Inhibition of arachidonic acid-induced platelet aggregation in vitro (method of Born, human PRP, aggregometer). It counts as cell-based, human (healthy person). The following applies: arachidonic acid 55.5 γ/ml, read-out: Rate of inhibition (%). How it is done: as §1, §2, §3
The test system of data set [13] is platelet aggregation induced by collagen. The data set can be described thus: Inhibition of collagen-induced platelet aggregation in vitro (method of Born, human PRP, aggregometer). It counts as cell-based, human (healthy person). Particulars: collagen 5.5 γ/ml, read-out: Rate of inhibition (%). As for the experimental part:
as §1, §2, §3

A short description of data set [14]: Acute toxicity in mice (Litchfield-Wilcoxon). Particulars: mouse, in vivo, ddY mice, parentheses: 95% reliability limits. Set-up: species or system mouse (ddY-strain). As for the experimental part:
The acute toxicity of the compound of formula (I) in accordance with this invention was examined.
The test compound (guanosine 5'-monophosphate sodium salt) was dissolved in physiological saline, and the solution was administered to ddY-strain mice (body weight 20 to 25 g) intravenously or orally.
The parenthesized figures show 95% reliability limits.

Structures can show the parent of a compound that is named as a salt.

Take `Nc1nc2c(ncn2[C@@H]2O[C@H](COP(=O)(O)O)[C@@H](O)[C@H]2O)c(=O)[nH]1` [5'-GMP, Guanosine 5'-monophosphate]: the “effect against thrombin-induced aggregation” value in [1] (Table 1) was “especially effective against thrombin-induced aggregation”. The duration of effect is at least 4.5 h in data set [2] (humans, oral administration) and at least 5 h in data set [3] (oral administration). Also, the “inhibition of platelet aggregation” value in [3] (oral administration) was “marked inhibition of platelet aggregation”. Further, in data set [4], the “inhibitory effect on aggregation inducing agents” value is given as “shows an inhibitory effect on all of the aggregation inducing agents tested”.

On to `Nc1ncnc2c1ncn2[C@@H]1O[C@H](COP(=O)(O)OP(=O)(O)O)[C@@H](O)[C@H]1O` [5'-ADP, adenosine 5'-diphosphate], for which the “action on platelet aggregation” value in [5] is recorded as “promoting platelet aggregation”.

Regarding `Nc1nc2c(ncn2[C@@H]2O[C@H](COP(=O)(O)OP(=O)(O)O)[C@@H](O)[C@H]2O)c(=O)[nH]1` [5'-GDP, guanosine 5'-diphosphate], in [6], the “inhibitory action on thrombin-induced platelet aggregation” value was “no inhibitory action on thrombin-induced platelet aggregation”. Moreover, the “inhibitory action on 5'-ADP-induced platelet aggregation” value in data set [7] was “inhibitory action on 5'-ADP-induced platelet aggregation”.

On to `Nc1nc2c(ncn2[C@@H]2O[C@H](COP(=O)([O-])[O-])[C@@H](O)[C@H]2O)c(=O)[nH]1.[Na+].[Na+]` [5'-GMP (sodium salt), guanosine 5'-monophosphate sodium salt], for which the inhibition at 100 µg/mL in data set [1] (Homo sapiens, Platelet, read-out: Rate of inhibition (%)) amounted to 66%. Further, the inhibition at 1000 µg/mL (stock) in data set [1] (Homo sapiens, Platelet, thrombin 0.5 μ/ml, sample 1.0 mg/ml, read-out: Rate of inhibition (%)) was determined as 80%; in data set [8], 8%; in data set [11] (sample 1.00 mg/ml) it was 10%; in data set [12] (sample 1.00 mg/ml), 40%; in data set [13] (sample 1.00 mg/ml) it was 10%. The inhibition at 10000 µg/mL (stock) in data set [1] (Homo sapiens, Platelet, thrombin 0.5 μ/ml, sample 10.0 mg/ml, read-out: Rate of inhibition (%)) turned out to be 89%. Further, the “Rate of platelet aggregation inhibition (%)” value is listed as 63% in [2] (1.5 hours); 75% in data set [2] (3 hours); 62% in data set [2] (4.5 hours); 38.8% in data set [10] (oral 0.5 g/kg); 61.0% in data set [10] (oral 1.0 g/kg); 75.2% in data set [10] (oral 1.5 g/kg). Besides, the “Rate of platelet aggregation inhibition (%)” value in [10] (oral 2.0 g/kg) was determined as 80.3%; in data set [10] (oral 3.0 g/kg), 100%; in data set [3] (iv 50 mg/kg, 30 seconds) it was 94%; in [3] (iv 50 mg/kg, 60 seconds), 93%; in data set [3] (iv 50 mg/kg, 90 seconds), 59%; in [3] (iv 50 mg/kg, 120 seconds), 60%. Also, the “Rate of platelet aggregation inhibition (%)” value in [3] (iv 50 mg/kg, 180 seconds) is listed as 62%; in data set [3] (iv 50 mg/kg, 240 seconds), 27%; in data set [3] (oral 1 g/kg, 1 hour) it was 95%; in data set [3] (oral 1 g/kg, 2 hours), 95%; in data set [3] (oral 1 g/kg, 3 hours), 93%; in [3] (oral 1 g/kg, 4 hours) it was 93%. Moreover, the “Rate of platelet aggregation inhibition (%)” value in [3] (oral 1 g/kg, 5 hours) is listed as 83%. The inhibition at 500 µg/mL in data set [9] (Homo sapiens, Platelet, read-out: Inhibition rate (%), thrombin 0.25 μ/ml, compound 0.5 mg/ml) is 75%. Further, the inhibition at 1000 µg/mL in data set [9] (Homo sapiens, Platelet, thrombin 0.25 μ/ml, compound 1.0 mg/ml, read-out: Inhibition rate (%)) turned out to be 81%. For the same compound, the inhibition at 100 µg/mL (stock) in data set [11] (sample 0.10 mg/ml) was determined as 3%; in [13] (sample 0.10 mg/ml) it was 10%. The inhibition at 10 µg/mL (stock) in [12] (sample 0.01 mg/ml) amounted to 22%. Further, the LD50 (as a rule, the dose expected to kill half of the subjects tested) at 72 h was determined as 3350 mg/kg in data set [14] (iv) and 14800 mg/kg in data set [14] (po).

For the compound `Nc1ncnc2c1ncn2[C@@H]1O[C@H](COP(=O)(O)O)[C@@H](O)[C@H]1O` [5'-AMP, adenosine 5'-monophosphate], the “action on platelet aggregation” value in [5] is recorded as “weak action of inhibiting platelet aggregation”.

Take `Nc1nc2c(ncn2[C@@H]2O[C@H](CO)[C@@H](OP(=O)(O)O)[C@H]2O)c(=O)[nH]1` [3'-GMP (sodium salt), Guanosine 3'-monophosphate]: in data set [9] (Homo sapiens, Platelet, thrombin 0.25 μ/ml, compound 2.0 mg/ml, read-out: Inhibition rate (%)), the inhibition at 2000 µg/mL was determined as 87%. Also, in data set [9] (thrombin 0.25 μ/ml, compound 2.0 mg/ml), the “Inhibition rate (%)” value is 80%.
